Reference: US5385932A, “HMG-COA reductase inhibitor metabolites” (Merck & Co., Inc., priority 1992, dated 1995)
One block for each molecule: values may come before it.

What was measured:
[1] = biological target: T1, HMG--CoA reductase (Rattus norvegicus, UniProt P51639); test: intrinsic HMG-CoA reductase inhibition, in vitro protocol after alkaline hydrolysis of the lactone ring; type: biochemical; conditions: relative inhibitory potency from IC50 values; lactone ring opened by alkaline hydrolysis; lovastatin (hydroxy acid form) assigned 100
T1 construct: from tissue
T1 sequence (P51639 1-887): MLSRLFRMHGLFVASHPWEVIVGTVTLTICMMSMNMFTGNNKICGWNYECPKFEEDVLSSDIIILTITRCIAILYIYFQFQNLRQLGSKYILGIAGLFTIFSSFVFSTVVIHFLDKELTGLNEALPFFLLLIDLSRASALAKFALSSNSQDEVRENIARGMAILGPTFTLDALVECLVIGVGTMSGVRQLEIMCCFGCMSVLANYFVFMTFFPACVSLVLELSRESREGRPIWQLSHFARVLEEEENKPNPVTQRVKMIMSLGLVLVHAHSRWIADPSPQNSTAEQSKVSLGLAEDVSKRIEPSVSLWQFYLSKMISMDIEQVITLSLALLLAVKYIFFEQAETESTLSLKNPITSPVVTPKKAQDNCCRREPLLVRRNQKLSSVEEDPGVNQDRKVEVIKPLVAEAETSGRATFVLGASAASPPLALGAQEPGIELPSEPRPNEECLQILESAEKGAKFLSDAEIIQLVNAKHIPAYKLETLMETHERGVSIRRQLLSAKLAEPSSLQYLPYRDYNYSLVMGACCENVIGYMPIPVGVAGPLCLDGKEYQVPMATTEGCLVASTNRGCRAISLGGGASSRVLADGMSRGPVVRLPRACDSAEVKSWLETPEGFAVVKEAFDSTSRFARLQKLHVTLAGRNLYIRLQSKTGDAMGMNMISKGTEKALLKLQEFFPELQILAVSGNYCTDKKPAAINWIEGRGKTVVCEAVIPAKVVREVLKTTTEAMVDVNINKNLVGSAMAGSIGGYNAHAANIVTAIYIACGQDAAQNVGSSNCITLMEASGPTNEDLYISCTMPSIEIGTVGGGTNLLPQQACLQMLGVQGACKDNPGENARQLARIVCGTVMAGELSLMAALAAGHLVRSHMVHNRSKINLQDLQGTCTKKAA
Description: After alkaline hydrolysis of the lactone ring the intrinsic HMG--CoA reductase inhibition activity was measured in an vitro protocol based on a method published in Proc. Natl. Acad. Sci. U.S.A. 77, 3957-3961 (1980).
The IC50 value of the test compound was compared with that of its parent determined simultaneously. For estimation of relative inhibitory potencies, lovastatin (in the form of its hydroxy acid) was assigned a value of 100.

[2] = incubation of 14C-labelled compound with rat liver microsomes, HPLC analysis of the label; type: in vitro ADME; conditions: rat liver microsomes with NADPH and MgCl2, pH 7.4, 37°
Description: Rat liver tissue (55.6 g) was homogenized in 0.05M Tris -1.15% KCl buffer at pH 7.5 (100 ml). The homogenates were centrifuged at 10,000 RPM for 20 '. The supernatants were filtered through glass wool and then centrifuged as 100,000 g for 90'. After the supernatant was discarded the pellet was suspended in 10 mM EDTA -1.15% KCl (100 ml) and recentrifuged at 100,000 g for 90 minutes. The supernatant was discarded and the pellet was resuspended in 0.25M sucrose (15 ml). Microsomes were stored at -80° under N2. Protein concentration (as determined by Biuret reaction) was 40 mg/ml of final suspension.
[^14 C] 6(R)-[2-[8(S)-(2,2-dimethylbutyryloxy)-2(S)-methyl-5(R)-hydroxy-6(S)-methyl-1,2,3,4, 4a(R),5,6,7,8,Sa(R)-decahydronaphthyl-1(S)]ethyl]-4(R)-hydroxy-3,4,5,6,-tetrahydro-2H-pyran-2-one (compound A)(40 μg) in 20 λ of DMSO was placed in a tube with rat liver microsomes (1 mg in 100 μl of broth) Mg Cl2 (30 μl of a 0.1M solution), NADPH (50 μl of a 0.01M solution) and phosphate buffer (100 λ of a.1M solution, pH 7.4).
Twenty five such tubes were incubated at 37° in a water bath, for 30 minutes. Acetone (1 ml) was added to each tube, followed by ethyl acetate (5 ml). The ethyl acetate was evaporated and the residue was reconstituted in methanol and fractionated by HPLC. […]

[3] = stability of the free dihydroxy acid on standing; type: physicochemical; conditions: on standing at room temperature; acid form can be maintained by increasing the pH above 7.0
Description: The sodium salt of the compound II from Example 4 is dissolved in 2 ml of ethanol-water (1:1; v:v) and added to 10 ml of 1N hydrochloric acid from which the dihydroxy acid is extracted with ethyl acetate. The organic extract is washed once with water, dried (Na2 SO4), and evaporated in vacuo with a bath temperature not exceeding 30° C. […] The dihydroxy acid form can be maintained by increasing the pH above 7.0.

Structure (SMILES): CCC(C)(C)C(=O)O[C@H]1C[C@@H](C)C[C@@H]2CC[C@H](C)[C@H](CC[C@@H]3C[C@@H](O)CC(=O)O3)[C@H]21 [compound B, 6(R)-[2-[8(S)-(2,2-dimethylbutyryloxy)-2(S),6(R)-dimethyl-1,2,3,4,4a(R),5,6,7,8, 8a(R)-decahydronaphthyl-1(S)]ethyl]-4(R)-hydroxy-3,4,5,6-tetrahydro-2H-pyran-2-one]
remaining at 1 h ([2]; 60 minutes, methyl-t.butyl ether extract, read-out: label in the extract that was unchanged starting material): 66%

Structure (SMILES): CCC(C)(C)C(=O)O[C@H]1C[C@](C)(O)[C@@H](O)[C@@H]2CC[C@H](C)[C@H](CC[C@@H](O)C[C@@H](O)CC(=O)O)[C@H]21 [Example 10]
stability of dihydroxy acid form (reversion to lactone) [3]: slowly reverts to the corresponding parent lactone

Structure (SMILES): CCC(C)(C)C(=O)O[C@H]1C[C@](C)(O)C[C@@H]2CC[C@H](C)[C@H](CC[C@@H]3C[C@@H](O)CC(=O)O3)[C@H]21 [6(R)-[2-[8(S)-(2,2-dimethylbutyryloxy)-2(S),6(R)-dimethyl-6(R)-hydroxy-1,2,3,4,4a (R),5,6,7,8,8a (R)-decahydronaphthyl-1(S)]ethyl]-4(R)-hydroxy-3,4,5,6-tetrahydro-2H-pyran-2-one]
Potency (Relative to Lovastatin = 100) [1]: 2

Continued, values first:

Potency (Relative to Lovastatin = 100) [1]: 40
Structure (SMILES): CCC(C)(C)C(=O)O[C@H]1C[C@](C)(O)[C@@H](O)[C@@H]2CC[C@H](C)[C@H](CC[C@@H]3C[C@@H](O)CC(=O)O3)[C@H]21 [6(R)-[2-[8(S)-(2,2-dimethylbutyryloxy)-2(S)-methyl-5(S),6(S)-dihydroxy-6(S)-methyl-1,2,3,4, 4a (R),5,6,7,8,8a (R)-decahydronaphthyl-1(S)]ethyl]-4(R)-hydroxy-3,4,5,6-tetrahydro-2H-pyran-2-one]

remaining at 0.5 h ([2]; 30 minutes, ethyl acetate extract, read-out: label representing unchanged starting material): 52%
Structure (SMILES): CCC(C)(C)C(=O)O[C@H]1C[C@@H](C)[C@@H](O)[C@@H]2CC[C@H](C)[C@H](CC[C@@H]3C[C@@H](O)CC(=O)O3)[C@H]21 [compound A, 6(R)-[2-[8(S)-(2,2-dimethylbutyryloxy)-2(S)-methyl-5(R)-hydroxy-6(S)-methyl-1,2,3,4, 4a(R),5,6,7,8,Sa(R)-decahydronaphthyl-1(S)]ethyl]-4(R)-hydroxy-3,4,5,6,-tetrahydro-2H-pyran-2-one]
